Values of other authors in patent US12357627B2, “Pharmaceutical compositions of cabozantinib” (AZURITY PHARMACEUTICALS, INC., priority 2021, dated 2025).
Converted amounts (≈) assume the structure as drawn. Where two headings read alike, the source gives them in different places.

Columns and labels:
[1] = mass balance study
[2] = high-fat meal relative to fasted conditions, healthy subjects, single oral dose

solubility (at pH>4): practically insoluble | solubility (in 0.01N HCl): 0.11 mg/mL (≈ 219 µM) | solubility (in water): practically insoluble | administered cabozantinib renally excreted [1]: at least 27% | increase of AUC [2]: 57% | increase of Cmax [2]: 41%
Structure (SMILES): COc1cc2nccc(Oc3ccc(NC(=O)C4(C(=O)Nc5ccc(F)cc5)CC4)cc3)c2cc1OC [Cabozantinib]
